System: actinic keratoses
Details: 0.1% in a dermatologically acceptable cream base

In the case of `COc1cc2c(c(OC)c1OC)-c1ccc(OC)c(=O)cc1[C@@H](NC(C)=O)CC2` [colchicine], the actinic keratoses cleared is reported as 35-40% and the skin irritation is reported as “significant level of skin irritation”.

Source: patent US9585962B1, “Treatment for actinic keratoses” (priority 2013, dated 2017)
